Data taken from patent US11090247B2, “Compositions for protecting the skin from heavy metals and formaldehyde” (FNG RESEARCH CO., LTD., priority 2016, dated 2021).

What was measured:
[1] = Removal test of heavy metals of active ingredients (pig skin, ICP-MS): Cu; settings: contaminated pig skin
Procedure: (§1) (1) Preparation of Heavy Metal Contamination Sources and Pig Skin Samples
(§2) A pig was slaughtered, flayed and the bristle was shaved. The pig skin was cut to prepare 5*5 cm size of skin samples respectively.
(§3) The said skin samples were cleanly wiped with wet gauze, and then, added to 50 ml of methanol and extracted by shaking with ultrasonic for 60 min. 50 ml of methanol was further added and mixed. The pig skin samples were removed from the extracted solutions to prepare the test solutions.
(§4) The test solutions were analyzed for heavy metal components using an inductively coupled plasma mass spectrometer (ICP-MS, Xseries™ 2, Thermo Fisher Scientific, UK).

[2] = Removal test of heavy metals of active ingredients (pig skin, ICP-MS): Pb; settings: contaminated pig skin
Procedure: as §1, §2, §3, §4

[3] = Removal test of heavy metals of active ingredients (pig skin, ICP-MS): Cd; settings: contaminated pig skin
Procedure: as §1, §2, §3, §4

[4] = Formaldehyde removing ability test (GC); settings: 2.0% formaldehyde solution; for Area (mAU*min) 30 min: formaldehyde GC area after 30 min; for Area (mAU*min) 30 min / Area (mAU*min) 180 min: 3 molar equivalents, room temperature; for Area (mAU*min) 180 min: formaldehyde GC area after 180 min; for Area (mAU*min) Initial: formaldehyde GC area, initial state, 3 molar equivalents of compound
human skin = assay: Skin irritation test of active ingredient (patch method, CTFA guidelines); format: in vivo; set-up: key to Degree of irritation: 0–0.1 none, 0.11–0.3 weak, 0.31–0.5 moderate, ≥0.51 strong irritation; settings: 20 people, patch 24 hours; for Test result(number of subject) (+): (+): Apparent reddening than periphery; for Test result(number of subject) (++): (++): More reddened and swollen than periphery; for Test result(number of subject) (±): (±): slightly reddish than the periphery; for Test result(number of subject) (−): (−): No erythema or particularly no symptoms
Procedure: A total of 20 people (10 men and 10 women in their 20 s and 30 s) were tested for skin irritation using the patch method according to the guidelines of CTFA (The Cosmetic, Toiletry & Fragrance Association, Inc. Washington, D.C.).
A filter paper disk was placed in an 8 mm diameter, 10 panels of pin chamber.
After 24 hours, the pin chamber was removed, and skin conditions were visually observed.
[Criteria for Skin Irritation]
(−): No erythema or particularly no symptoms; (±): slightly reddish than the periphery; (+): Apparent reddening than periphery; (++): More reddened and swollen than periphery.
[Grade for Skin Irritation]
Degree of irritation 0-0.1: Grade I (unstimulated);
Degree of irritation 0.11-0.3: Grade II (weakly stimulated);
Degree of irritation 0.31-0.5: Grade III (moderately stimulated);
Degree of irritation 0.51 or more: Grade IV (strongly stimulated)

Structure (SMILES)	Removal of Heavy metals Cu (%) ([1]; 0.1 wt % aqueous solution)	Removal of Heavy metals Cu (%) ([1]; 0.5 wt % aqueous solution)	Removal of Heavy metals Cu (%) ([1]; 1.0 wt % aqueous solution)	Removal of Heavy metals Pb (%) ([2]; 0.1 wt % aqueous solution)	Removal of Heavy metals Pb (%) ([2]; 0.5 wt % aqueous solution)	Removal of Heavy metals Pb (%) ([2]; 1.0 wt % aqueous solution)	Removal of Heavy metals Cd (%) ([3]; 0.1 wt % aqueous solution)	Removal of Heavy metals Cd (%) ([3]; 0.5 wt % aqueous solution)	Removal of Heavy metals Cd (%) ([3]; 1.0 wt % aqueous solution)	Area (mAU*min) 30 min [4]	Area (mAU*min) 180 min [4]	Area (mAU*min) Initial [4]	Degree of irritation (human skin; 0.1 wt %)	Grade (human skin; 0.1 wt %)	Test result(number of subject) (+) (human skin; 0.1 wt %)	Test result(number of subject) (++) (human skin; 0.1 wt %)	Test result(number of subject) (±) (human skin; 0.1 wt %)	Test result(number of subject) (−) (human skin; 0.1 wt %)	Degree of irritation (human skin; 0.5 wt %)	Grade (human skin; 0.5 wt %)	other results
O=C(O)c1ccc(N(CCN(CCN(c2ccc(C(=O)O)o2)c2ccc(C(=O)O)o2)c2ccc(C(=O)O)o2)CCN(c2ccc(C(=O)O)o2)c2ccc(C(=O)O)o2)o1 [Embodiment 4, 5,5′,5″,5′″-(((ethane-1,2-diylbis((5-carboxyfuran-2-yl)azanediyl))bis(ethane-2,1-diyl))bis(azanetriyl))tetrakis(furan-2-carboxylic acid)]	92.5%	96.2%	97.2%	86.2%	89.7%	90.8%	87.7%	90.6%	91.8%	0.173 mAU*min	0 mAU*min	0.305 mAU*min	0	I (Degree of irritation 0-0.1: Grade I (unstimulated))	0	0	0	20	0	I (Degree of irritation 0-0.1: Grade I (unstimulated))	Test result(number of subject) (+) (human skin; 0.5 wt %): 0; Test result(number of subject) (++) (human skin; 0.5 wt %): 0; Test result(number of subject) (±) (human skin; 0.5 wt %): 0; Test result(number of subject) (−) (human skin; 0.5 wt %): 20; Degree of irritation (human skin; 1.0 wt %): 0.05; Grade (human skin; 1.0 wt %): I (Degree of irritation 0-0.1: Grade I (unstimulated)); Test result(number of subject) (+) (human skin; 1.0 wt %): 0; Test result(number of subject) (++) (human skin; 1.0 wt %): 0; Test result(number of subject) (±) (human skin; 1.0 wt %): 1; Test result(number of subject) (−) (human skin; 1.0 wt %): 19
O=C(O)CN1CCN(CC(=O)O)CCN(CC(=O)O)CCN(CC(=O)O)CC1 [Embodiment 5, 2,2′,2″,2′″-(1,4,7,10-tetraazacyclododecane-1,4,7,10-tetrayl)tetraacetic acid]	94.6%	96.8%	97.2%	92.4%	94.7%	95.1%	90.4%	93.6%	93.7%	0.179 mAU*min	0 mAU*min	0.305 mAU*min	0	I (Degree of irritation 0-0.1: Grade I (unstimulated))	0	0	0	20	0	I (Degree of irritation 0-0.1: Grade I (unstimulated))	Test result(number of subject) (+) (human skin; 0.5 wt %): 0; Test result(number of subject) (++) (human skin; 0.5 wt %): 0; Test result(number of subject) (±) (human skin; 0.5 wt %): 0; Test result(number of subject) (−) (human skin; 0.5 wt %): 20; Degree of irritation (human skin; 1.0 wt %): 0.05; Grade (human skin; 1.0 wt %): I (Degree of irritation 0-0.1: Grade I (unstimulated)); Test result(number of subject) (+) (human skin; 1.0 wt %): 0; Test result(number of subject) (++) (human skin; 1.0 wt %): 0; Test result(number of subject) (±) (human skin; 1.0 wt %): 1; Test result(number of subject) (−) (human skin; 1.0 wt %): 19
O=C(O)c1ccc(N2CCN(c3ccc(C(=O)O)cc3)CCN(c3ccc(C(=O)O)cc3)CCN(c3ccc(C(=O)O)cc3)CC2)cc1 [Embodiment 6, 4,4′,4″,4′″-(1,4,7,10-tetraazacyclododecane-1,4,7,10-tetrayl)tetrabenzoic acid]	94.1%	96.3%	97.0%	90.2%	92.8%	93.2%	89.2%	90.9%	91.6%	0.183 mAU*min	0 mAU*min	0.305 mAU*min	0	I (Degree of irritation 0-0.1: Grade I (unstimulated))	0	0	0	20	0	I (Degree of irritation 0-0.1: Grade I (unstimulated))	Test result(number of subject) (+) (human skin; 0.5 wt %): 0; Test result(number of subject) (++) (human skin; 0.5 wt %): 0; Test result(number of subject) (±) (human skin; 0.5 wt %): 0; Test result(number of subject) (−) (human skin; 0.5 wt %): 20; Degree of irritation (human skin; 1.0 wt %): 0.05; Grade (human skin; 1.0 wt %): I (Degree of irritation 0-0.1: Grade I (unstimulated)); Test result(number of subject) (+) (human skin; 1.0 wt %): 0; Test result(number of subject) (++) (human skin; 1.0 wt %): 0; Test result(number of subject) (±) (human skin; 1.0 wt %): 1; Test result(number of subject) (−) (human skin; 1.0 wt %): 19
O=C(O)c1cncc(N2CCN(c3cncc(C(=O)O)c3)CCN(c3cncc(C(=O)O)c3)CCN(c3cncc(C(=O)O)c3)CC2)c1 [Embodiment 7, 5,5′,5″,5′″-(1,4,7,10-tetraazacyclododecane-1,4,7,10-tetrayl)tetranicotinic acid]	93.8%	95.1%	96.0%	90.8%	93.1%	93.6%	87.9%	89.4%	90.7%	0.181 mAU*min	0 mAU*min	0.305 mAU*min	0	I (Degree of irritation 0-0.1: Grade I (unstimulated))	0	0	0	20	0	I (Degree of irritation 0-0.1: Grade I (unstimulated))	Test result(number of subject) (+) (human skin; 0.5 wt %): 0; Test result(number of subject) (++) (human skin; 0.5 wt %): 0; Test result(number of subject) (±) (human skin; 0.5 wt %): 0; Test result(number of subject) (−) (human skin; 0.5 wt %): 20; Degree of irritation (human skin; 1.0 wt %): 0; Grade (human skin; 1.0 wt %): I (Degree of irritation 0-0.1: Grade I (unstimulated)); Test result(number of subject) (+) (human skin; 1.0 wt %): 0; Test result(number of subject) (++) (human skin; 1.0 wt %): 0; Test result(number of subject) (±) (human skin; 1.0 wt %): 0; Test result(number of subject) (−) (human skin; 1.0 wt %): 20
